Consider 28 compounds from US8445501B2, “Substituted 7-carboxamido-pyrrolo[3,2-d]pyrimidines” (Takeda GmbH, priority 2008, dated 2013).

This assay addresses T1, human PDE5 (Homo sapiens, UniProt O76074).
T1 construct: from tissue; host or cells: platelets from fresh blood of human donors (lysate, 10,000 g supernatant)
Briefly: Inhibition of the type 5 phosphodiesterase (PDE5) activity, modified SPA test with platelet lysate. The format is biochemical. The settings on record: PDE5 from human platelet lysate, 0.5 μM cGMP. An outline of the steps:
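SPA-based cGMP hydrolysis, [3H]cGMP tracer in 0.5 μM cGMP, by sonicated human platelet lysate; motapizone (1 μM) and a PDE2 inhibitor (10 nM) block other PDEs. Reaction 15 min at 37 °C after 5 min preincubation, quenched with beads containing IBMX. IC50 from concentration-effect curves.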
For the compound `COCCOc1ccc2c(c1-c1ncnc3c(C(=O)N[C@H]4CC[C@@H](NC(=O)COC)CC4)c[nH]c13)OCO2` [Example 166, cis-4-[5-(2-Methoxy-ethoxy)-benzo[1,3]dioxol-4-yl]-5H-pyrrolo[3,2-d]pyrimidine-7-carboxylic acid [4-(2-methoxy-acetylamino)-cyclohexyl]-amide], the IC50 is 10.2 nM.

In turn, `CCOC(=O)N[C@H]1CC[C@@H](NC(=O)c2c[nH]c3c(-c4c(OCCOC)ccc5c4OCO5)ncnc23)CC1` [Example 167, cis-[4-({4-[5-(2-Methoxy-ethoxy)-benzo[1,3]dioxol-4-yl]-5H-pyrrolo[3,2-d]pyrimidine-7-carbonyl}-amino)-cyclohexyl]-carbamic acid ethyl ester] gave a half-inhibitory concentration (IC50) of 5.25 nM.

Compound `COCCOc1ccc2c(c1-c1ncnc3c(C(=O)NC4CCN(C(C)=O)CC4)c[nH]c13)OCO2` [Example 168, 4-[5-(2-Methoxy-ethoxy)-benzo[1,3]dioxol-4-yl]-5H-pyrrolo[3,2-d]pyrimidine-7-carboxylic acid (1-acetyl-piperidin-4-yl)-amide] had a concentration for half-maximal inhibition (IC50) of 7.94 nM. This IC50 is about 1.5-fold higher than that of the compound before.

As to `COCCOc1ccc2c(c1-c1ncnc3c(C(=O)NC4CCN(C(=O)C5CC5)CC4)c[nH]c13)OCO2` [Example 169, 4-[5-(2-Methoxy-ethoxy)-benzo[1,3]dioxol-4-yl]-5H-pyrrolo[3,2-d]pyrimidine-7-carboxylic acid (1-cyclopropanecarbonyl-piperidin-4-yl)-amide], inhibition was half-maximal at 1.74 nM (IC50). Compared with the last compound, the IC50 is about 4.6-fold lower.

For `COCCOc1ccc2c(c1-c1ncnc3c(C(=O)NC4CCN(C(=O)COC)CC4)c[nH]c13)OCO2` [Example 170, 4-[5-(2-Methoxy-ethoxy)-benzo[1,3]dioxol-4-yl]-5H-pyrrolo[3,2-d]pyrimidine-7-carboxylic acid [1-(2-methoxy-acetyl)piperidin-4-yl]-amide], half-maximal inhibition (IC50) was put at 13.8 nM. Compared with the last compound, the IC50 is about 7.9-fold higher.

In the case of `O=C(NC1CCN(C(=O)CO)CC1)c1c[nH]c2c(-c3c(OCC4CC4)ccc4c3OCO4)ncnc12` [Example 171, 4-(5-Cyclopropylmethoxy-benzo[1,3]dioxol-4-yl)-5H-pyrrolo[3,2-d]pyrimidine-7-carboxylic acid [1-(2-hydroxy-ethanoyl)-piperidin-4-yl]amide], the half-inhibitory concentration (IC50) is 0.302 nM.

The compound `O=C(CO)N[C@H]1CC[C@H](NC(=O)c2c[nH]c3c(-c4c(OCC5CC5)ccc5c4OCO5)ncnc23)CC1` [Example 172] had an IC50 of 0.112 nM.

Consider `C[C@H](O)C(=O)N[C@H]1CC[C@H](NC(=O)c2c[nH]c3c(-c4c(OCC5CC5)ccc5c4OCO5)ncnc23)CC1` [Example 173], for which half-maximal inhibition (IC50) was put at 0.186 nM. Against the preceding compound, the IC50 is about 1.7-fold higher.

In the case of `O=C(CO)N[C@H]1CC[C@@H](NC(=O)c2c[nH]c3c(-c4c(OCC5CC5)ccc5c4OCO5)ncnc23)CC1` [Example 174], the 50% inhibitory concentration (IC50) was 0.389 nM.

`C[C@H](O)C(=O)N[C@H]1CC[C@@H](NC(=O)c2c[nH]c3c(-c4c(OCC5CC5)ccc5c4OCO5)ncnc23)CC1` [Example 175]: the IC50 is 0.245 nM. This IC50 is about 1.6-fold lower than that of the compound before.

`C[C@H](O)C(=O)N1CCC(NC(=O)c2c[nH]c3c(-c4c(OCC5CC5)ccc5c4OCO5)ncnc23)CC1` [Example 176, 4-(5-Cyclopropylmethoxy-benzo[1,3]dioxol-4-yl)-5H-pyrrolo[3,2-d]pyrimidine-7-carboxylic acid [1-((S)-2-hydroxy-propanoyl)-piperidin-4-yl]amide] gave an IC50 of 0.245 nM.

Consider `O=C(N[C@H]1CC[C@H](NC(=O)C2(O)CC2)CC1)c1c[nH]c2c(-c3c(OCC4CC4)ccc4c3OCO4)ncnc12` [Example 177, trans-4-(5-Cyclopropylmethoxy-benzo[1,3]dioxol-4-yl)-5H-pyrrolo[3,2-d]pyrimidine-7-carboxylic acid {4-[(1-hydroxy-cyclopropanecarbonyl)-amino]-cyclohexyl}-amide], for which the 50% inhibitory concentration (IC50) was 0.123 nM.

`O=C(N[C@H]1CC[C@@H](NC(=O)C2(O)CC2)CC1)c1c[nH]c2c(-c3c(OCC4CC4)ccc4c3OCO4)ncnc12` [Example 178, cis-4-(5-Cyclopropylmethoxy-benzo[1,3]dioxol-4-yl)-5H-pyrrolo[3,2-d]pyrimidine-7-carboxylic acid {4-[(1-hydroxy-cyclopropanecarbonyl)-amino]-cyclohexyl}-amide] showed an IC50 of 0.229 nM.

Compound `O=C(NC1CCN(C(=O)C2(O)CC2)CC1)c1c[nH]c2c(-c3c(OCC4CC4)ccc4c3OCO4)ncnc12` [Example 179, 4-(5-Cyclopropylmethoxy-benzo[1,3]dioxol-4-yl)-5H-pyrrolo[3,2-d]pyrimidine-7-carboxylic acid {1-[1-(1-hydroxy-cyclopropyl)methanoyl]-piperidin-4-yl}-amide] showed an IC50 of 0.182 nM. This IC50 and that of the compound before are within 1.5-fold of each other.

`O=C(N[C@@H]1CCN(C(=O)CO)C1)c1c[nH]c2c(-c3c(OCC4CC4)ccc4c3OCO4)ncnc12` [Example 180, 4-(5-Cyclopropylmethoxy-benzo[1,3]dioxol-4-yl)-5H-pyrrolo[3,2-d]pyrimidine-7-carboxylic acid [(R)-1-(2-hydroxy-ethanoyl)-pyrrolidin-3-yl]amide]: the half-maximal inhibitory concentration (IC50) was 1.2 nM.

Take `C[C@H](O)C(=O)N1CC[C@@H](NC(=O)c2c[nH]c3c(-c4c(OCC5CC5)ccc5c4OCO5)ncnc23)C1` [Example 181, 4-(5-Cyclopropylmethoxy-benzo[1,3]dioxol-4-yl)-5H-pyrrolo[3,2-d]pyrimidine-7-carboxylic acid [(R)-1-((S)-2-hydroxy-propanoyl)-pyrrolidin-3-yl]amide]: half-maximal inhibition (IC50) was put at 0.589 nM.

As to `O=C(N[C@@H]1CCN(C(=O)C2(O)CC2)C1)c1c[nH]c2c(-c3c(OCC4CC4)ccc4c3OCO4)ncnc12` [Example 182, 4-(5-Cyclopropylmethoxy-benzo[1,3]dioxol-4-yl)-5H-pyrrolo[3,2-d]pyrimidine-7-carboxylic acid {(R)-1-[1-(1-hydroxy-cyclopropyl)-methanoyl]-pyrrolidin-3-yl}-amide], the concentration for half-maximal inhibition (IC50) was 0.479 nM.

`O=C(N[C@H]1CCN(C(=O)CO)C1)c1c[nH]c2c(-c3c(OCC4CC4)ccc4c3OCO4)ncnc12` [Example 183, 4-(5-Cyclopropylmethoxy-benzo[1,3]dioxol-4-yl)-5H-pyrrolo[3,2-d]pyrimidine-7-carboxylic acid [(S)-1-(2-hydroxy-ethanoyl)-pyrrolidin-3-yl]amide] showed an IC50 of 1.86 nM.

The compound `C[C@H](O)C(=O)N1CC[C@H](NC(=O)c2c[nH]c3c(-c4c(OCC5CC5)ccc5c4OCO5)ncnc23)C1` [Example 184, 4-(5-Cyclopropylmethoxy-benzo[1,3]dioxol-4-yl)-5H-pyrrolo[3,2-d]pyrimidine-7-carboxylic acid [(S)-1-((S)-2-hydroxy-propanoyl)-pyrrolidin-3-yl]amide] had a half-inhibitory concentration (IC50) of 3.16 nM.

As to `O=C(N[C@H]1CCN(C(=O)C2(O)CC2)C1)c1c[nH]c2c(-c3c(OCC4CC4)ccc4c3OCO4)ncnc12` [Example 185, 4-(5-Cyclopropylmethoxy-benzo[1,3]dioxol-4-yl)-5H-pyrrolo[3,2-d]pyrimidine-7-carboxylic acid {(S)-1-[1-(1-hydroxy-cyclopropyl)-methanoyl]-pyrrolidin-3-yl}-amide], the 50% inhibitory concentration (IC50) was 2.04 nM. This IC50 is about 1.5-fold lower than that of the compound before.

Consider `O=C(NCC1CCN(C(=O)CO)CC1)c1c[nH]c2c(-c3c(OCC4CC4)ccc4c3OCO4)ncnc12` [Example 186, 4-(5-Cyclopropylmethoxy-benzo[1,3]dioxol-4-yl)-5H-pyrrolo[3,2-d]pyrimidine-7-carboxylic acid [1-(2-hydroxy-ethanoyl)-piperidin-4-ylmethyl]-amide], for which the IC50 was 0.55 nM.

The compound `C[C@H](O)C(=O)N1CCC(CNC(=O)c2c[nH]c3c(-c4c(OCC5CC5)ccc5c4OCO5)ncnc23)CC1` [Example 187, 4-(5-Cyclopropylmethoxy-benzo[1,3]dioxol-4-yl)-5H-pyrrolo[3,2-d]pyrimidine-7-carboxylic acid [1-((S)-2-hydroxy-propanoyl)piperidin-4-ylmethyl]-amide] showed an IC50 of 0.457 nM.

For `O=C(NCC1CCN(C(=O)C2(O)CC2)CC1)c1c[nH]c2c(-c3c(OCC4CC4)ccc4c3OCO4)ncnc12` [Example 188, 4-(5-Cyclopropylmethoxy-benzo[1,3]dioxol-4-yl)-5H-pyrrolo[3,2-d]pyrimidine-7-carboxylic acid {1-[1-(1-hydroxy-cyclopropyl)-methanoyl]-piperidin-4-ylmethyl}-amide], inhibition was half-maximal at 0.513 nM (IC50). This IC50 and that of the compound before are within 1.5-fold of each other.

Turning to `O=C(NCC1CCCN(C(=O)CO)C1)c1c[nH]c2c(-c3c(OCC4CC4)ccc4c3OCO4)ncnc12` (stereo not shown) [Example 189, 4-(5-Cyclopropylmethoxy-benzo[1,3]dioxol-4-yl)-5H-pyrrolo[3,2-d]pyrimidine-7-carboxylic acid [1-(2-hydroxy-acetyl)piperidin-3-ylmethyl]-amide], the IC50 is 0.389 nM.

`C[C@H](O)C(=O)N1CCCC(CNC(=O)c2c[nH]c3c(-c4c(OCC5CC5)ccc5c4OCO5)ncnc23)C1` (stereo partly drawn) [Example 190, 4-(5-Cyclopropylmethoxy-benzo[1,3]dioxol-4-yl)-5H-pyrrolo[3,2-d]pyrimidine-7-carboxylic acid [1-((S)-2-hydroxy-propionyl)piperidin-3-ylmethyl]-amide] showed an IC50 of 0.251 nM.

As to `O=C(NCC1CCN(C(=O)CO)C1)c1c[nH]c2c(-c3c(OCC4CC4)ccc4c3OCO4)ncnc12` (stereo not shown) [Example 191, 4-(5-Cyclopropylmethoxy-benzo[1,3]dioxol-4-yl)-5H-pyrrolo[3,2-d]pyrimidine-7-carboxylic acid [1-(2-hydroxy-acetyl)pyrrolidin-3-ylmethyl]-amide], the IC50 is 1.02 nM.

Take `C[C@H](O)C(=O)N1CCC(CNC(=O)c2c[nH]c3c(-c4c(OCC5CC5)ccc5c4OCO5)ncnc23)C1` (stereo partly drawn) [Example 192, 4-(5-Cyclopropylmethoxy-benzo[1,3]dioxol-4-yl)-5H-pyrrolo[3,2-d]pyrimidine-7-carboxylic acid [1-((S)-2-hydroxy-propionyl)pyrrolidin-3-ylmethyl]-amide]: the half-inhibitory concentration (IC50) is 0.832 nM.

In turn, `O=C(NCC1CN(C(=O)CO)CCO1)c1c[nH]c2c(-c3c(OCC4CC4)ccc4c3OCO4)ncnc12` (stereo not shown) [Example 193, 4-(5-Cyclopropylmethoxy-benzo[1,3]dioxol-4-yl)-5H-pyrrolo[3,2-d]pyrimidine-7-carboxylic acid [4-(2-hydroxy-acetyl)morpholin-2-ylmethyl]-amide] had a 50% inhibitory concentration (IC50) of 1.07 nM. This IC50 and that of the compound before are within 1.5-fold of each other.

For orientation: IC50 means the concentration that gives 50% inhibition. Low values mean greater potency in that assay, high ones weaker potency in that assay.
